# Source: patent US20230149540A1, “VACCINE PLATFORM FOR THE INDUCTION OF SYSTEMIC IMMUNE RESPONSES” (The Board of Trustees of the Leland Stanford Junior …, priority 2020, published 2023)
# How the values were obtained:
# [1] = test system: human MAIT cells; assay: In vitro MAIT cell activation, IFN-γ secretion (FIG. 7); type: cell-based; conditions: stimulated for 18 h
# Experimental: (§1) FIG. 7. In vitro exposure of human or rhesus macaque MAIT cells to their cognate antigen (5-OP-RU) (a highly unstable molecule) or microspheres loaded with 5-OP-RU-loaded MR-1 monomer induced IFN-γ secretion. Representative pseudocolor plots shown are gated on live CD8^+ T cells. Human and rhesus macaque cells were stimulated for 18 h.
# (§2) Activation of innate-like T cells and effector memory T cells can be achieved by presentation of their antigen in the context of the appropriate MHC molecule. Streptavidin-coated microspheres were linked to biotinylated monomers of CD1d (type I NKT cells) or MR1 (MAIT cells) to test for induction of activation of these innate-like T cells. […] We then performed an experiment in which mice were intravenously administrated CABs loaded with αGC (positive control), which would induce the expansion of NKT cells, CD1d-αGC-coated microspheres (test group), or were left untreated (negative control) (FIG. 8).
# [2] = test system: rhesus macaque MAIT cells; assay: as above; type: cell-based; conditions: stimulated for 18 h
# Experimental: as §1, §2
smiles,measurement,setting,value
CC(=O)C=Nc1c(NC[C@H](O)[C@H](O)[C@H](O)CO)[nH]c(=O)[nH]c1=O [5-OP-RU],secretion of IFN-γ by MAIT cells,[1],induce secretion of IFN-γ to a similar extent
same,secretion of IFN-γ by MAIT cells,[2],induce secretion of IFN-γ to a similar extent
